These results are taken from patent publication US8242118B2, “Arylsulfonamide derivatives for use as CCR3 antagonists in the treatment of inflammatory and immunological disorders” (Axikin Pharmaceuticals Inc., priority 2001, dated 2012).

Structures can show the parent of a compound that is named as a salt. Where only a bound is given, the exact number is not on record here.

One data set addresses T1, Human CCR3 (Homo sapiens, UniProt P51677).
T1 construct: The cloned CCR3 cDNA was constructed with pcDNA3 vector and transfected into a IC562 cell line; expressed in transfected cells
T1 sequence (P51677 1-355): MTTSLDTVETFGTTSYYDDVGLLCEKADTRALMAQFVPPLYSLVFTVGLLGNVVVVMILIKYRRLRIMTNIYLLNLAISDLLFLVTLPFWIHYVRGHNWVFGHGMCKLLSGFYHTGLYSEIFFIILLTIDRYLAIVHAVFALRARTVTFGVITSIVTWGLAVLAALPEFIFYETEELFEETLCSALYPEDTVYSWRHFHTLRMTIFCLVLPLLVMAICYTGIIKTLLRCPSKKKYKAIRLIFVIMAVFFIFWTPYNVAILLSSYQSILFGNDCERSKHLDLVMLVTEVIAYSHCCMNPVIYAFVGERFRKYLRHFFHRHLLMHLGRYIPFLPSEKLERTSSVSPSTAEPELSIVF
Nature of the data set: Calcium mobilization assay, eotaxin-stimulated. Particulars: human CCR3-transformed K562 cells, 10 nM eotaxin; compounds of about 40 to 90% purity; read-out: Activity grade Ca2+ (IC50 class). It is filed as cell-based. The procedure, abridged:
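Eotaxin (10 nM final) triggered calcium flux, monitored 60 s with Fluo-3AM, in butyrate-pretreated (5 mM, 20–24 h) CCR3-transfected K562 cells. Compounds preincubated 10 min; percent inhibition per concentration yielded IC50.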
Background: A change in cytosolic calcium serves as a functional read-out for many receptors and channels.

Turning to `Cc1cc(C)cc(Oc2ccc([N+](=O)[O-])cc2S(=O)(=O)N2CCN(CCOCCO)CC2)c1` [Example 1-89], the IC50 on Human CCR3 was less than 1000 nM.

`Cc1cc(C)cc(Oc2ccc(S(C)(=O)=O)cc2S(=O)(=O)N2CCNCC2)c1.Cl` [Example 1-35] registered a melting point of 267 to 268 °C. In addition, the IC50 at Human CCR3 was less than 1000 nM. With `Cc1cc(C)cc(Oc2ccc(C(F)(F)F)cc2S(=O)(=O)N2CCNCC2)c1.Cl` [Example 1-43], the melting point is 238 to 239 °C. Besides, the IC50 at Human CCR3 was less than 1000 nM. For `N#Cc1ccccc1Oc1ccc([N+](=O)[O-])cc1S(=O)(=O)N1CCNCC1` [Example 1-29], at Human CCR3, the IC50 lay within 1000 to 10000 nM. Take `Cc1cc(C)cc(Oc2ccc([N+](=O)[O-])cc2S(=O)(=O)N2CC(C)NC(C)C2)c1` (stereo not shown) [Example 1-92]: the IC50 at Human CCR3 is less than 1000 nM. As for `Cl.O=[N+]([O-])c1ccc(Oc2cccc(Br)c2)c(S(=O)(=O)N2CCNCC2)c1` [Example 1-39], the melting point was 119 °C. For the same compound, the IC50 at Human CCR3 was less than 1000 nM.

As for `Cl.O=[N+]([O-])c1ccc(Oc2cc(Cl)cc(Cl)c2F)c(S(=O)(=O)N2CCNCC2)c1` [Example 1-77], the melting point amounted to 263 °C. Besides, the IC50 on Human CCR3 was less than 1000 nM. Take `O=[N+]([O-])c1ccc(Oc2cccc(F)c2)c(S(=O)(=O)N2CCNCC2)c1` [Example 1-25]: the IC50 at Human CCR3 was less than 1000 nM. Regarding `Cc1cc(C)cc(Oc2ccncc2S(=O)(=O)N2CCNCC2)c1` [Example 25-1, 1-{[4-(3,5-dimethylphenoxy)-3-pyridinyl]sulfonyl}piperazine hydrochloride], the IC50 on Human CCR3 is less than 1000 nM. On to `O=C(O)C1CNCCN1S(=O)(=O)c1cc([N+](=O)[O-])ccc1Oc1cc(Cl)cc(Cl)c1` (stereo not shown) [Example 1-87], for which the melting point is 240 to 241 °C. Further, the IC50 at Human CCR3 was less than 1000 nM.

Consider `O=[N+]([O-])c1ccc(Oc2cc(Cl)ccc2Cl)c(S(=O)(=O)N2CCNCC2)c1` [Example 1-84], for which the melting point is 179 to 180 °C. Further, on Human CCR3, the IC50 was less than 1000 nM. As for `Cc1ccc(C)c(Oc2ccc([N+](=O)[O-])cc2S(=O)(=O)N2CCNCC2)c1C.Cl` [Example 1-61], the melting point is 220 °C. Further, the IC50 at Human CCR3 fell in the range of 1000 to 10000 nM.

`Cc1ccc(Cl)c(Oc2ccc([N+](=O)[O-])cc2S(=O)(=O)N2CCNCC2)c1` [Example 1-80]: the melting point lay in the range of 166 to 167 °C. In addition, the IC50 on Human CCR3 is less than 1000 nM. As for `Cc1cc(C)cc(Oc2cc(C)c([N+](=O)[O-])cc2S(=O)(=O)N2CCNCC2)c1.Cl` [Example 1-44], the melting point worked out at 159 °C. For the same compound, at Human CCR3, the IC50 fell in the range of 1000 to 10000 nM. `Cl.O=[N+]([O-])c1ccc(Oc2cc(Cl)cc(Cl)c2)c(S(=O)(=O)N2CCCNCC2)c1` [Example 1-91] yielded a melting point of 261 to 263 °C. Also, the IC50 on Human CCR3 was less than 1000 nM. `Cl.O=S(=O)(c1cc(F)ccc1Oc1cc(Cl)cc(Cl)c1)N1CCNCC1` [Example 1-51] registered a melting point of 145 °C. For the same compound, the IC50 at Human CCR3 was less than 1000 nM. As for `Cc1cc(C)cc(Oc2ccc([N+](=O)[O-])cc2S(=O)(=O)N2CCNCC2)c1` [Example 1-2, 1-{[2-(3,5-dimethylphenoxy)-5-nitrophenyl]sulfonyl}piperazine hydrochloride], on Human CCR3, the IC50 was less than 1000 nM. Compound `Cc1cc(C)c(C)c(Oc2ccc([N+](=O)[O-])cc2S(=O)(=O)N2CCNCC2)c1.Cl` [Example 1-65] had a melting point of 187 °C. Further, the concentration for half-maximal inhibition (IC50) at Human CCR3 is less than 1000 nM. In the case of `Cc1cc(C)cc(Sc2ccc([N+](=O)[O-])cc2S(=O)(=O)N2CCNCC2)c1` [Example 2-1, 1-({2-[(3,5-dimethylphenyl)-sulfanyl]-5-nitrophenyl}sulfonyl)piperazine hydrochloride], at Human CCR3, the IC50 was less than 1000 nM. As for `CN(C)C(=O)c1ccc(Oc2cc(Cl)cc(Cl)c2)c(S(=O)(=O)N2CCNCC2)c1` [Example 10-1, 4-(3,5-dichlorophenoxy)-N,N-dimethyl-3-(1-piperazinylsulfonyl)benzamide hydrochloride], on Human CCR3, the IC50 fell in the range of 1000 to 10000 nM. `Cc1cccc(Oc2ccc([N+](=O)[O-])cc2S(=O)(=O)N2CCNCC2)c1C.Cl` [Example 1-62] had a melting point of 142 °C. For the same compound, at Human CCR3, the IC50 is less than 1000 nM. `Cc1cc(C)cc(Oc2ccc([N+](=O)[O-])cc2S(=O)(=O)N2CCN(C(=O)OC(C)(C)C)CC2)c1` [Example 1-1, tert-butyl 4-{[2-(3,5-dimethylphenoxy)-5-nitrophenyl]sulfonyl}-1-piperazinecarboxylate] returned a melting point of 232 to 233 °C. Besides, the IC50 at Human CCR3 was more than 10000 nM. For `CC(=O)c1ccccc1Oc1ccc([N+](=O)[O-])cc1S(=O)(=O)N1CCNCC1.Cl` [Example 1-30], the melting point is 194 to 200 °C. On Human CCR3, the IC50 was more than 10000 nM. `Cl.O=[N+]([O-])c1ccc(Oc2cccc(C(F)(F)F)c2)c(S(=O)(=O)N2CCNCC2)c1` [Example 1-34] showed a melting point of 128 °C. The IC50 at Human CCR3 was less than 1000 nM. In turn, `CC(=O)c1cccc(Oc2ccc([N+](=O)[O-])cc2S(=O)(=O)N2CCNCC2)c1.Cl` [Example 1-31] had a melting point of 77 °C. For the same compound, the half-inhibitory concentration (IC50) on Human CCR3 was more than 10000 nM. `Cc1cc(C)cc(Oc2ccc(C#N)cc2S(=O)(=O)N2CCNCC2)c1` [Example 9-1, 4-(3,5-dimethylphenoxy)-3-(1-piperazinylsulfonyl)benzonitrile hydrochloride]: the IC50 on Human CCR3 is less than 1000 nM. Same read-out and setting: the same measure for `COc1ccc(Oc2ccc([N+](=O)[O-])cc2S(=O)(=O)N2CCNCC2)cc1` [Example 1-19]: more than 10000 nM. On to `Cl.O=[N+]([O-])c1ccc(Oc2cc(C(F)(F)F)cc(C(F)(F)F)c2)c(S(=O)(=O)N2CCNCC2)c1` [Example 1-6], for which the melting point is 188 to 191 °C. Moreover, the IC50 on Human CCR3 was less than 1000 nM. The matching figures for `Cl.O=S(=O)(c1cc(Cl)ccc1Oc1cc(Cl)cc(Cl)c1)N1CCNCC1` [Example 1-56]: 255 to 257 °C and less than 1000 nM.

As to `COc1cc(OC)cc(Oc2ccc([N+](=O)[O-])cc2S(=O)(=O)N2CCNCC2)c1.Cl` [Example 1-5], the melting point lay within 211 to 213 °C. The IC50 at Human CCR3 was more than 10000 nM. `CC(C)(C)c1cccc(Oc2ccc([N+](=O)[O-])cc2S(=O)(=O)N2CCNCC2)c1.Cl` [Example 1-36] displayed a melting point of 155 °C. On Human CCR3, the IC50 is less than 1000 nM.

`Cc1cc(C)cc(Oc2ccc([N+](=O)[O-])cc2S(=O)(=O)N2CCN(CCO)CC2)c1` [Example 1-88] returned a melting point of 163 to 164 °C. Also, the IC50 on Human CCR3 is less than 1000 nM.

For `Cc1cc(C)cc(Oc2ccc(Br)cc2S(=O)(=O)N2CCNCC2)c1` [Example 8-1, 1-{[5-bromo-2-(3,5-dimethylphenoxy)phenyl]sulfonyl}piperazine hydrochloride], the IC50 on Human CCR3 was less than 1000 nM. On the same count and under the same terms, for `Cc1cc(C)cc(Oc2ccc(Cl)cc2S(=O)(=O)N2CCNCC2)c1` [Example 5-2, 1-{[5-chloro-2-(3,5-dimethylphenoxy)phenyl]sulfonyl}piperazine hydrochloride] the value was less than 1000 nM. In the case of `Cl.O=[N+]([O-])c1ccc(Oc2ccccc2Cl)c(S(=O)(=O)N2CCNCC2)c1` [Example 1-28], the melting point fell in the range of 166 to 169 °C. Moreover, the IC50 at Human CCR3 was less than 1000 nM. For `O=[N+]([O-])c1ccc(Oc2ccccc2)c(S(=O)(=O)N2CCNCC2)c1` [Example 1-18], on Human CCR3, the IC50 was in the range of 1000 to 10000 nM. Turning to `COc1ccc(Oc2cc(C)cc(C)c2)c(S(=O)(=O)N2CCNCC2)c1` [Example 6-2, hydrochloride], the IC50 at Human CCR3 is 1000 to 10000 nM. As to `Cc1cc(C)cc(Oc2ccc([N+](=O)[O-])cc2S(=O)(=O)N2CCCNCC2)c1` [Example 1-90], the IC50 at Human CCR3 was less than 1000 nM. For `N#Cc1ccc(Nc2cc(Cl)cc(Cl)c2)c(S(=O)(=O)N2CCNCC2)c1` [Example 20-1, 4-[(3,5-dichlorophenyl)amino]-3-(1-piperazinylsulfonyl)benzonitrile hydrochloride], the IC50 on Human CCR3 was less than 1000 nM.

Consider `CC(C)(C)c1ccc(Oc2ccc([N+](=O)[O-])cc2S(=O)(=O)N2CCNCC2)cc1` [Example 1-21], for which the IC50 at Human CCR3 is more than 10000 nM. For the compound `O=[N+]([O-])c1ccc(Oc2ccc(Cl)cc2)c(S(=O)(=O)N2CCNCC2)c1` [Example 1-22], the IC50 at Human CCR3 is more than 10000 nM. As to `Cc1cc(C)cc(Oc2cc3cc[nH]c3cc2S(=O)(=O)N2CCNCC2)c1` [Example 11-1, 5-(3,5-dimethylphenoxy)-6-(1-piperazinylsulfonyl)-1H-indole trifluoroacetate], the IC50 at Human CCR3 is more than 10000 nM. `CC1CN(S(=O)(=O)c2cc([N+](=O)[O-])ccc2Oc2cc(Cl)cc(Cl)c2)CC(C)N1` (stereo not shown) [Example 1-93]: the IC50 at Human CCR3 was less than 1000 nM. As to `Cc1cc(C)cc(Oc2ccc(N)cc2S(=O)(=O)N2CCN(C(=O)OC(C)(C)C)CC2)c1` [Example 5-1, tert-butyl 4-{[5-amino-2-(3,5-dimethyl-phenoxy)phenyl]sulfonyl}-1-piperazinecarboxylate], the IC50 on Human CCR3 is more than 10000 nM.

`Cc1cc(C)cc(Oc2ccc(O)cc2S(=O)(=O)N2CCNCC2)c1` [Example 6-1, 4-(3,5-dimethylphenoxy)-3-(1-piperazinylsulfonyl)phenol hydrochloride]: the IC50 at Human CCR3 is more than 10000 nM. Take `Cc1cc(Oc2ccc([N+](=O)[O-])cc2S(=O)(=O)N2CCNCC2)c(C(C)C)cc1Cl` [Example 1-81]: the IC50 on Human CCR3 was more than 10000 nM.

In the case of `O=[N+]([O-])c1ccc(Oc2ccc(F)cc2)c(S(=O)(=O)N2CCNCC2)c1` [Example 1-20], on Human CCR3, the IC50 is more than 10000 nM.

As usually defined, the IC50 is the point on the concentration scale where inhibition reaches its midpoint. The melting point is the temperature, or range, at which the solid turns liquid.
